Laboratory results reported in ChEMBL document CHEMBL3639188, “Tyrosine kinase inhibitors” (2014).

Molecular target: High affinity nerve growth factor receptor (Homo sapiens, UniProt P04629)
Test: In Vitro Kinase Activity Assay: Compounds to be tested were dissolved in 100% DMSO in a range of concentrations from 10^-8 to 10^-3 M including negative control (DMSO), then diluted with Kinase Buffer (50 mM HEPES, pH 7.5, 1 mM EGTA, 10 mM MgCl2, 0.01% Tween-20, and 2 mM DTT, added fresh) to 4x the final concentration. The final curve included 11 concentrations (10^-11 to 10^-5 M) plus negative …

Chain of High affinity nerve growth factor receptor (P04629 whole entry): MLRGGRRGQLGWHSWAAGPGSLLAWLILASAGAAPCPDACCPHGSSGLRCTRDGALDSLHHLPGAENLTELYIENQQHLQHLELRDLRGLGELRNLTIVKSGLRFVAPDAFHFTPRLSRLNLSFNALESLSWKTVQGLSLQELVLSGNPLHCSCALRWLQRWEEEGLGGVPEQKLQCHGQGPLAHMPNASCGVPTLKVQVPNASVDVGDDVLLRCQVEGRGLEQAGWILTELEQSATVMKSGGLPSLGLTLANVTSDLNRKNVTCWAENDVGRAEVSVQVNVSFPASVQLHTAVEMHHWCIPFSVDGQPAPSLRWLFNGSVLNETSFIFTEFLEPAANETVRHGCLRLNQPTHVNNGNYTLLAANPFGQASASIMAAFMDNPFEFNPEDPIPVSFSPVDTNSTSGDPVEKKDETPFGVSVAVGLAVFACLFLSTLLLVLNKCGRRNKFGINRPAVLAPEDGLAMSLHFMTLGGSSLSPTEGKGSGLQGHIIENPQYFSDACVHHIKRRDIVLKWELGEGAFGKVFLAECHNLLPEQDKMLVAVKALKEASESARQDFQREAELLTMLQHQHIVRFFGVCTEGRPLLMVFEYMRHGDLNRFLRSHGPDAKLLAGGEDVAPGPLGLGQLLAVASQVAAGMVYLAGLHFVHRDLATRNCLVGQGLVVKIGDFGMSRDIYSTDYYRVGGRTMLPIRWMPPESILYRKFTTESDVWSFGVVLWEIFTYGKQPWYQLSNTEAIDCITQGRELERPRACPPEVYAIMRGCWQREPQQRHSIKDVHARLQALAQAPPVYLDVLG

IC50: 6.35 nM
Structure (SMILES): CC(Cc1cc(F)ccc1F)Nc1cc[nH]c(=O)c1-c1nc2cc3c(cc2[nH]1)C(=O)N(C1CCN(C)CC1)C3=O (stereo unspecified)
